molecular target: T1, C-terminal His6-tagged, recombinant, human JAK2, amino acids 808-end (Homo sapiens, UniProt O60674); experiment: JAK2 kinase Alphascreen assay (Method 1); format: biochemical; conditions: Alphascreen, 150 pM JAK2 enzyme, 5 mM ATP, 80 nM Tyk2 peptide, 60 minutes room temperature; read-out: IC50 Assay (Method 1)
T1 construct: His6 (C); purchased Upstate Biotechnology MA; host or cells: baculovirus in Sf21 cells
Procedure: To measure JAK2 kinase activity, a commercially available purified enzyme may be used. […] After incubation of the kinase with a biotinylated substrate and adenosine triphosphate (ATP) for 60 minutes at room temperature, the kinase reaction may be stopped by the addition of 30 mM ethylenediaminetetraacetic acid (EDTA). The reaction may be performed in 384 well microtitre plates and the reaction products may be detected with the addition of streptavidin coated Donor Beads and phosphotyrosine-specific antibodies coated Acceptor Beads using the EnVision Multilabel Plate Reader after an overnight incubation at room temperature. “Tween 20” is a registered trademark of ICI Americas, Inc.

T1 sequence (O60674 808-1132 limits assumed): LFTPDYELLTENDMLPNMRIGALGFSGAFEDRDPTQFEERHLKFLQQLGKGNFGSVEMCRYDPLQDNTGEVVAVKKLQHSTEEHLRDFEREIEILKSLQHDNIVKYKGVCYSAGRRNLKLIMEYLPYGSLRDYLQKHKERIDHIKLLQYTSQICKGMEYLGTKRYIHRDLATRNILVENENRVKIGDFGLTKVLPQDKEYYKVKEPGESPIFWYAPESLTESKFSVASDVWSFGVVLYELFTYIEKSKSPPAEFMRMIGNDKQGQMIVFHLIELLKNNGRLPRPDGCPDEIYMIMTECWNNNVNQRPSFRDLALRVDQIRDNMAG

SMILES	IC50 [nM]
CC(Nc1nc(Nc2cn(C)cn2)c2ccccc2n1)c1ncc(F)cn1 (single isomer, unassigned) [Example 45(b), N^2-[1-(5-Fluoropyrimidin-2-yl)ethyl]-N^4-(1-methyl-1H-imidazol-4-yl)quinazoline-2,4-diamine]	3
CC(Nc1nc(Nc2cn(C)cn2)c2cnn(C)c2n1)c1ncc(F)cc1F (single isomer, unassigned) [Example 14(b), N^6-[1-(3,5-Difluoropyridin-2-yl)ethyl]-1-methyl-N^4-(1-methyl-1H-imidazol-4-yl)-1H-pyrazolo[3,4-d]pyrimidine-4,6-diamine]	< 3
COc1ccc2nc(N[C@@H](C)c3ncc(F)cn3)nc(Nc3cn(C)cn3)c2c1 [Example 28, N^2-[(1S)-1-(5-Fluoropyrimidin-2-yl)ethyl]-6-methoxy-N^4-(1-methyl-1H-imidazol-4-yl)quinazoline-2,4-diamine]	670
CC(Nc1nc(Nc2cn(C)cn2)c2ccn(C)c2n1)c1ncc(F)cn1 (single isomer, unassigned) [Example 23(a), N^2-[1-(5-Fluoropyrimidin-2-yl)ethyl]-7-methyl-N^4-(1-methyl-1H-imidazol-4-yl)-7H-pyrrolo[2,3-d]pyrimidine-2,4-diamine]	< 3
CC(Nc1nc2c(c(Nc3cn(C)cn3)n1)CCC2)c1ncc(F)cn1 (single isomer, unassigned) [Example 8(a), N^2-[1-(5-Fluoropyrimidin-2-yl)ethyl]-N^4-(1-methyl-1H-imidazol-4-yl)-6,7-dihydro-5H-cyclopenta[d]pyrimidine-2,4-diamine]	20000
CC(Nc1nc(Nc2cn(C)cn2)c2ccncc2n1)c1ncc(F)cc1F (single isomer, unassigned) [Example 43(b), N^2-[1-(3,5-Difluoropyridin-2-yl)ethyl]-N^4-(1-methyl-1H-imidazol-4-yl)pyrido[3,4-d]pyrimidine-2,4-diamine]	1180
CC(Nc1nc(Nc2cn(C)cn2)c2cc(F)cnc2n1)c1ncc(F)cn1 (single isomer, unassigned) [Example 38(a), 6-Fluoro-N^2-[1-(5-fluoropyrimidin-2-yl)ethyl]-N^4-(1-methyl-1H-imidazol-4-yl)pyrido[2,3-d]pyrimidine-2,4-diamine]	100
CC(Nc1nc(Nc2cn(C)cn2)c2cnn(C)c2n1)c1ncc(F)cn1 (single isomer, unassigned) [Example 11(b), N^6-[1-(5-Fluoropyrimidin-2-yl)ethyl]1-methyl-N^4-(1-methyl-1H-imidazol-4-yl)-1H-pyrazolo[3,4-d]pyrimidine-4,6-diamine]	< 3

Now from value to compound:

IC50 [nM]	SMILES
< 3	CC(Nc1nc2c(c(Nc3cn(C)cn3)n1)CCC2)c1ncc(F)cn1 (single isomer, unassigned) [Example 8(b), N^2-[1-(5-Fluoropyrimidin-2-yl)ethyl]-N^4-(1-methyl-1H-imidazol-4-yl)-6,7-dihydro-5H-cyclopenta[d]pyrimidine-2,4-diamine]
28800	CC(Nc1nc(Nc2cn(C)cn2)c2ccsc2n1)c1ncc(F)cn1 (single isomer, unassigned) [Example 1(a), N^2-[1-(5-Fluoropyrimidin-2-yl)ethyl]-N^4-(1-methyl-1H-imidazol-4-yl)thieno[2,3-d]pyrimidine-2,4-diamine]
3	CC(Nc1nc(Nc2cn(C)cn2)c2ccc(Cl)nc2n1)c1ncc(F)cc1F (racemic) [Example 44, 7-Chloro-N^2-[1-(3,5-difluoropyridin-2-yl)ethyl]-N^4-(1-methyl-1H-imidazol-4-yl)pyrido[2,3-d]pyrimidine-2,4-diamine]
21600	Cc1nc2c(Nc3cn(C)cn3)nc(NC(C)c3ncc(F)cn3)nc2s1 (single isomer, unassigned) [Example 7(b), N^5-[1-(5-Fluoropyrimidin-2-yl)ethyl]-2-methyl-N^7-(1-meth 1-1H-imidazol-4-yl)[1,3]thiazolo[5,4-d]pyrimidine-5,7-diamine]
< 3	CC(Nc1nc(Nc2cn(C)cn2)c2ccsc2n1)c1ncc(F)cn1 (single isomer, unassigned) [Example 1(b), N^2-[1-(5-Fluoropyrimidin-2-yl)ethyl]-N^4-(1-methyl-1H-imidazol-4-yl)thieno[2,3-d]pyrimidine-2,4-diamine]
21	C[C@H](Nc1nc(Nc2cn(C)cn2)c2cn[nH]c2n1)c1ncc(F)cn1 [Example 46, N^6-[(1S)-1-(5-Fluoropyrimidin-2-yl)ethyl]-N^4-(1-methyl-1H-imidazol-4-yl)-1H-pyrazolo[3,4-d]pyrimidine-4,6-diamine]
4300	CC(Nc1nc2c(c(Nc3cn(C)cn3)n1)CNC2)c1ncc(F)cn1 (single isomer, unassigned) [Example 18(a), N^2-[1-(5-Fluoropyrimidin-2-yl)ethyl]-N^4-(1-methyl-1H-imidazol-4-yl)-6,7-dihydro-5H-pyrrolo[3,4-d]pyrimidine-2,4-diamine]

molecular target: T2, N-terminal GST-tagged, recombinant, human JAK2 (amino acids 831-1132) (Homo sapiens, UniProt O60674); experiment: JAK2 mobility shift assay on Caliper LC3000 (Method 2); format: biochemical; conditions: 0.3 nM JAK2 enzyme, 5 mM ATP, 1.5 μM SRCtide, 90 minutes room temperature
T2 construct: human JAK2 (amino acids 831-1132, PLAZA database pAZB0359); GST (N); host or cells: insect cells
T2 sequence (O60674 831-1132): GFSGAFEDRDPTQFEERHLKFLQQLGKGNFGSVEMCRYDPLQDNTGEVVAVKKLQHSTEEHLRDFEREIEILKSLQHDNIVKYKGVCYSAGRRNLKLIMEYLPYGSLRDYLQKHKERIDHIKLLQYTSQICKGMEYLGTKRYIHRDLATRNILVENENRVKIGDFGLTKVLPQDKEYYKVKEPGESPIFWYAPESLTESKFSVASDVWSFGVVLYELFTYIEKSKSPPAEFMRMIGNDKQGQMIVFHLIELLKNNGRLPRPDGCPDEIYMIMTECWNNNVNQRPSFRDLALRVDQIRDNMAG
Procedure: Janus kinase 2 (JAK2) activity was also determined by measuring the kinase's ability to phosphorylate a tyrosine residue within a peptide substrate using a mobility shift assay on a Caliper LC3000 reader (Caliper, Hopkinton, Mass.), which measures fluorescence of the phosphorylated and unphosphorylated substrate and calculates a ratiometric value to determine percent turnover.
To measure JAK2 kinase activity, an in-house purified enzyme was used. […] After incubation of the kinase with a FAM labeled SRCtide substrate, adenosine triphosphate (ATP), and MgCl2 for 90 minutes at room temperature, the kinase reaction was stopped by the addition of 36 mM ethylenediaminetetraacetic acid (EDTA). The reaction was performed in 384 well microtitre plates and the reaction products were detected using the Caliper LC3000 Reader.

SMILES	IC50 [nM]
C[C@H](Nc1nc(Nc2cn(C)cn2)c2cc(C(F)(F)F)[nH]c2n1)c1ncc(F)cn1 [Example 19, N^2-[(1S)-1-(5-Fluoropyrimidin-2-yl)ethyl]-N^4-(1-methyl-1H-imidazol-4-yl)-6-(trifluoromethyl)-7H-pyrrolo[2,3-d]pyrimidine-2,4-diamine]	13
COc1cnc(C(C)Nc2nc(Nc3cn(C)cn3)c3cc[nH]c3n2)nc1 (stereo not drawn) [Example 27(b), N^2-[1-(5-Methoxypyrimidin-2-yl)ethyl]-N^4-(1-methyl-1H-imidazol-4-yl)-7H-pyrrole[2,3-d]pyrimidine-2,4-diamine]	520
COc1cnc(C(C)Nc2nc(Nc3cn(C)cn3)c3cc[nH]c3n2)nc1 (single isomer, unassigned) [Example 27(a), N^2-[1-(5-Methoxypyrimidin-2-yl)ethyl]-N^4-(1-methyl-1H-imidazol-4-yl)-7H-pyrrolo[2,3-d]pyrimidine-2,4-diamine]	17600
CC(Nc1nc(Nc2cn(C)cn2)c2ccn(C3CC3)c2n1)c1ncc(F)cn1 (single isomer, unassigned) [Example 24(b), 7-Cyclopropyl-N^2-[1-(5-fluoropyrimidin-2-yl)ethyl]-N^4-(1-methyl-1H-imidazol-4-yl)-7H-pyrrolo[2,3-d]pyrimidine-2,4-diamine]	27
COc1cnc(C(C)Nc2nc(Nc3cn(C)cn3)c3cc[nH]c3n2)nc1 (racemic) [Example 27, N^2-[1-(5-Methoxypyrimidin-2-yl)ethyl]-N^4-(1-methyl-1H-imidazol-4-yl)-7H-pyrrolo[2,3-d]pyrimidine-2,4-diamine]	270
CC(Nc1nc(Nc2cn(C)cn2)c2ccn(CCF)c2n1)c1ncc(F)cn1 (single isomer, unassigned) [Example 22(b), 7-(2-Fluoroethyl)-N^2-[1-(5-fluoropyrimidin-2-yl)ethyl]-N^4-(1-methyl-1H-imidazol-4-yl)-7H-pyrrolo[2,3-d]pyrimidine-2,4-diamine]	7
CC(Nc1nc(Nc2cn(C)cn2)c2cc[nH]c2n1)c1ncc(F)cc1F (single isomer, unassigned) [Example 25(b), N^2-[1-(3,5-Difluoropyridin-2-yl)ethyl]-N^4-(1-methyl-1H-imidazol-4-yl)-7H-pyrrolo[2,3-d]pyrimidine-2,4-diamine]	10

Continued, values first:

IC50 [nM]	SMILES
2320	CC(Nc1nc(Nc2cn(C)cn2)c2ccn(CCF)c2n1)c1ncc(F)cn1 (single isomer, unassigned) [Example 22(a), 7-(2-Fluoroethyl)-N^2-[1-(5-fluoropyrimidin-2-yl)ethyl]-N^4-(1-methyl-1H-imidazol-4-yl)-7H-pyrrolo[2,3-d]pyrimidine-2,4-diamine]
47	C[C@H](Nc1nc(Nc2cn(C)cn2)c2ccc(O)nc2n1)c1ncc(F)cn1 [Example 34, 2-{[(1S)-1-(5-Fluoropyrimidin-2-yl)ethyl]amino}-4-[(1-methyl-1H-imidazol-4-yl)amino]pyrido[2,3-d]pyrimidin-7-ol]
80	CC(Nc1nc(Nc2cn(C)cn2)c2cc(F)cnc2n1)c1ncc(F)cc1F (single isomer, unassigned) [Example 31(a), N^2-[1-(3,5-Difluoropyridin-2-yl)ethyl]-6-fluoro-N^4-(1-methyl-1H-imidazol-4-yl)pyrido[2,3-d]pyrimidine-2,4-diamine]
40	CCn1ncc2c(Nc3cn(C)cn3)nc(NC(C)c3ncc(F)cn3)nc21 (single isomer, unassigned) [Example 9(b), 1-Ethyl-N^6-[1-(5-fluoropyrimidin-2-yl)ethyl]-N^4-(1-methyl-1H-imidazol-4-yl)-1H-pyrazolo[3,4-d]pyrimidine-4,6-diamine]
26	CC(Nc1nc(Nc2cn(C)cn2)c2ccc(C(F)(F)F)nc2n1)c1ncc(F)cc1F (racemic) [Example 33, N^2-[1-(3,5-Difluoropyridin-2-yl)ethyl]-N^4-(1-methyl-1H-imidazol-4-yl)-7-(trifluoromethyl)pyrido[2,3-d]pyrimidine-2,4-diamine]

Reference: US20110201628A1, “HETEROCYCLIC JAK KINASE INHIBITORS” (priority 2008, published 2011)
